{"source": "patent US20090029366A1", "about": "(priority 2007, published 2009)", "target": "T1, human HCN1 (Homo sapiens, UniProt O60741)", "T1 construct": "expressed in transfected cells; host or cells: HEK-293H", "T1 sequence (O60741 1-890)": "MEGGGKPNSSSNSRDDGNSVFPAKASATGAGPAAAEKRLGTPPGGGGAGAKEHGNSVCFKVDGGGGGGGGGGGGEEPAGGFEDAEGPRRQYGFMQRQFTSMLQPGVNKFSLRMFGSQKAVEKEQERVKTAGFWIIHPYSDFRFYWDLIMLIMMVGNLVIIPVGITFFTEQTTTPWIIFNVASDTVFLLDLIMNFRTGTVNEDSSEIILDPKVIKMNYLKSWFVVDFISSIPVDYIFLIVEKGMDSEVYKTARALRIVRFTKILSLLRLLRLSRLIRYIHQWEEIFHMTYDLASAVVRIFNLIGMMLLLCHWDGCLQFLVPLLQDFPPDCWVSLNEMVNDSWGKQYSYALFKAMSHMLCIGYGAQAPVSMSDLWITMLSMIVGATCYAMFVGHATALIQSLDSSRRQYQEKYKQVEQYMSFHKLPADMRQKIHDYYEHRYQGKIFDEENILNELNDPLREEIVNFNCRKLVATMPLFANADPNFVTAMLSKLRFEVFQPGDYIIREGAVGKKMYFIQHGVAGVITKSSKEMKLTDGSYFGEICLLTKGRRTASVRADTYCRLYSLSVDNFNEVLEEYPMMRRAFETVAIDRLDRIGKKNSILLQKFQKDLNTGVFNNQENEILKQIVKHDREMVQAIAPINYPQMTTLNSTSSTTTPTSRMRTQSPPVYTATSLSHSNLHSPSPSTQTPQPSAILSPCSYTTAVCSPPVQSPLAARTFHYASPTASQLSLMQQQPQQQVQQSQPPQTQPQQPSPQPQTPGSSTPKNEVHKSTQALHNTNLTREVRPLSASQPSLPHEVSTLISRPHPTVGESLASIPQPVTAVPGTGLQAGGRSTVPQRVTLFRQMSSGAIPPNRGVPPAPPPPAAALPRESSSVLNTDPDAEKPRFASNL", "assay": "MPSD FLIPR 96 well hyperpolarization assay, HCN1", "type": "cell-based", "design": "blockade of hyperpolarization (change in fluorescence), FIG. 4 legend: dose or concentration left out as unconfirmed", "procedure": "The above-described assay was modified for use with the FLIPR®^96 or FLEX^96 96 well plate format. In brief, cells stably expressing HCN channels were plated at 40-80×10^3 cells/plate in 100-150 μl/well of DMEM supplemented with 10% fetal bovine serum, 1× NEAA, and 1× penicillin/streptomycin. Cells were cultured for 24-48 hours in a 5% CO2/air humidifiedincubator at 37° C. Cells were incubated in 30 μl/well of HBSS containing MPSD, as described above, for 15-45 minutes at room temperature.\nMembrane potentials were measured at room temperature (21°-23°) using a FLIPR® system or a FLEXSTATION® (Molecular Devices of Sunnydale, Calif.). Control cells were incubated in HBSS/MPSD without a test agent. For identification of HCN channel modulators, cells were incubated in HBSS/MPSD and the presence of a test agent as described in Examples 5 and 6 herein below.\nHEK-293H cells stably expressing HCN1 or HCN3 channels were each plated at 40-80×10^3 cells/plate in a FLIPR®^96 well format in 100-150 μl/ well of DMEM supplemented with 10% fetal bovine serum and penicillin/streptomycin. The cells were cultured for 24-48 hours in a 5% CO2/air humidified incubatorat 37° C.\n[…] Cells were incubated for 15 to 45 minutes. […] The change in fluorescence (ΔF) was measured for a total assay time of about 100 seconds. […]", "data": [{"molecule": "CCN(c1ccccc1)c1cc(=NC)n(C)c(C)n1.Cl", "note": "[ZD7288]", "values": [{"measurement": "blockade of hyperpolarization (change in fluorescence)", "setting": "50 μM ZD7288, HEK-293H HCN1, about 100 seconds", "value": "effectively blocked hyperpolarization"}, {"measurement": "blockade of hyperpolarization (change in fluorescence), FIG. 4 legend", "setting": "cells expressing HCN1", "value": "effectively blocked hyperpolarization"}]}]}
